Counter-ions that a name gives are not always drawn. Like-named read-outs stand apart in the source and are kept apart here.
How the values were obtained:
[1] = system: stereotypes provoked by apomorphine; assay: antagonism to stereotypes provoked by apomorphine; assay type: in vivo, male rats; settings: rat, oral, read-out: ED50 (DE50), apomorphine sterotypes
Protocol: A. antagonism to stereotypes provoked by apomorphine
This test was conducted on groups of 5 male rats in individual cages with the procedure of Janssen et al [Arzn. Forsch., Vol. 15 (1965), p. 104-117 and Vol. 17 (1967), p. 841-854]. Each rat orally received the test compound and then, at variable times, an intraveinous injection of 1.5 mg of apomorphine hydrochloride in the veins of the penis. The times of injection were 1 hour, 24 hours, 2 days, 3 days or 4 days after the test product administration and the rats were studied during 1 minute after 5,10 and 15 minutes after the injection and the stereotype movements of the jaws spheres were evaluated for their degree of intensity on a scale for 0 to 3 /Boissier et al, Therapie, Vol. 25 (1970), p. 939-949/. The ED50 was determined at the maximum of the effect for the time considered that is to say the dose reducing the symptoms by 50% in the treated animals as compared to control animals and the results are reported in Table I.

[2] = system: toxicity provoked by amphetamine; assay: antagonism to toxicity provoked by amphetamine; assay type: in vivo, male mice; settings: mouse, oral, read-out: ED50 (DE50), amphetaminic toxicity
Protocol: B. antagonism to toxicity provoked by amphetamine
This test was effect on groups of 10 male mice grouped in crystallizers with a 20 cm diameter and a 9 cm height closed with a grilled lid. Each mouse orally received a determined dose of the test product and at different times a single intraperitoneal dose of dexamphetamine sulfate. The injection was effected 1 hour, 24 hours or 2,3,4 or 7 days after the administration of the test compound and the mortality for each group was determined 24 hours after the injection. The ED50, the dose at which the toxicity of dexamphetamine sulphate was reduced by 50%, was determined and the results are reported in Table I.

[3] = system: histamine hydrochloride lethality; assay: antihistaminic activity (protection against lethal histamine dose); assay type: in vivo, guinea pigs; settings: guinea pig, oral 10 mg/kg
Protocol: E. antihistaminic Activity
This test was effected on guinea pigs which received orally a single dose of 10 mg/kg of the test product and then a intraveinous injection of 0.8 mg/kg of histamine hydrochloride 1 hour or 24 hours thereafter. This histamine dose is the minimum lethal dose for 100% of the animals within about 3 minutes and after 10 minutes, any surviving animals were considered to be protected. Each product was rated to see if 50% of the animals were alive at this dose and the values of Table IV show at least 50% protected by + and less than 50% protected by 0.

[4] = system: stereotypes provoked by amphetamine; assay: antagonism to stereotypes provoked by amphetamine; assay type: in vivo, rats; settings: for % protection: rat
Protocol: C. antagonism to stereotypes provoked by amphetamine
This test with the product of Example 2 was effected on groups of 5 rats with the rats individually held in cages and after the rats received intraperitoneally or subcutaneously an aqueous suspension of the product at a dose of 10 mg/kg, each rat received intraperitoneally at different times a single injection of 8 mg/kg of dexamphetamine sulfate. The second injections were made 1 hour or 1,3 or 7 days after the first injection and the results were determined by the procedure of Halliwel et al [Brit. J. Pharmacol., Vol. 23 (1964), p. 330-350].

[5] = system: vomitting provoked by apomorphine; assay: antagonism against vomitting provoked by apomorphine; assay type: in vivo, dogs; settings: dog
Protocol: D. antagonism against vomitting provoked by apomorphine
This test was effected on 3 dogs on whom the number of vomits provoked by a single subcutaneous injection of 0.1 mg/kg of apomorphine hydrochloride 8 days before this test. Each dog received subcutaneously an injection of an aqueous suspension of 0.3 mg/kg or 0.8 mg/kg of the product of Example 2 and an injection of 0.1 mg/kg of apomorphine hydrochloride 30 minutes, 7 days, 14 days, 21 days, 28 days, 35 days and 42 days thereafter.

acute toxicity = settings: mouse, in vivo, Swiss mice, mortality at 72 hours
Protocol: The acute toxicity of the product of Example 2 was determined on groups of 10 mice of the Swiss strain weighing about 20 g receiving increasing doses orally or intraperitoneally of the test product. The mortality was determined 72 hours after the product administration.

[6] = apomorphine 1 h after test product
[7] = apomorphine 24 h after test product
[8] = dexamphetamine 1 h after test product
[9] = dexamphetamine 24 h after test product
[10] = 48 h, apomorphine 2 d after test product
[11] = 72 h, apomorphine 3 d after test product
[12] = 96 h, apomorphine 4 d after test product
[13] = 48 h, dexamphetamine 2 d after test product
[14] = 72 h, dexamphetamine 3 d after test product
[15] = 96 h, dexamphetamine 4 d after test product
[16] = 168 h, dexamphetamine 7 d after test product

c1ccc2c(c1)Sc1ccccc1N2CCCN1CCC(c2c[nH]c3ccccc23)CC1 [Example 1, 4-(3'-indolyl)-1-[γ-(10"-phenothiazinyl)-propyl]-piperidine.HCl]
ED50 [1, 6]: > 50 mg/kg | ED50 [1, 7]: 35 mg/kg | ED50 [2, 8]: < 10 mg/kg | ED50 [2, 9]: < 10 mg/kg | Protection against histamine ([3]; after 1 hour): 0 (less than 50% protected) | Protection against histamine ([3]; after 24 hours): + (at least 50% protected)

FC(F)(F)c1ccc2c(c1)N(CCCN1CCC(c3c[nH]c4ccccc34)CC1)c1ccccc1S2 [Example 2, 4-(3'-indolyl)-1-[γ-(2"-trifluoromethyl-10"-phenothiazinyl)-propyl]-piperidine hydrochloride]
ED50 [1, 10]: 18 mg/kg | ED50 [1, 11]: 17 mg/kg | ED50 [1, 12]: 33 mg/kg | ED50 [1, 6]: > 50 mg/kg | ED50 [1, 7]: < 10 mg/kg | ED50 [2, 13]: < 10 mg/kg | ED50 [2, 14]: 50 mg/kg | ED50 [2, 8]: < 10 mg/kg | ED50 [2, 9]: < 10 mg/kg | antagonistic effect against the stereotypes provoked by amphetamine (in words) ([4]; injected intraperitoneally or subcutaneously): important antagonistic effect of prolonged duration | % protection ([4]; intraperitoneal 10 mg/kg, after 1 hour): 39% | % protection ([4]; intraperitoneal 10 mg/kg, after 1 day): 77% | % protection ([4]; intraperitoneal 10 mg/kg, after 3 days): 68% | % protection ([4]; intraperitoneal 10 mg/kg, after 7 days): 61% | % protection ([4]; subcutaneous 10 mg/kg, after 1 hour): 17% | % protection ([4]; subcutaneous 10 mg/kg, after 1 day): 84% | % protection ([4]; subcutaneous 10 mg/kg, after 3 days): 60% | % protection ([4]; subcutaneous 10 mg/kg, after 7 days): 14% | neuroleptic activity (Table III, in words) ([5]; subcutaneous): important prolonged neuroleptic activity | % of protection ([5]; subcutaneous 0.3 mg/kg, after 30 min): 24% | % of protection ([5]; subcutaneous 0.3 mg/kg, after 7 d): 86% | % of protection ([5]; subcutaneous 0.3 mg/kg, after 14 d): 57% | % of protection ([5]; subcutaneous 0.3 mg/kg, after 21 d): 29% | % of protection ([5]; subcutaneous 0.3 mg/kg, after 28 d): 10% | % of protection ([5]; subcutaneous 0.8 mg/kg, after 30 min): 0% | % of protection ([5]; subcutaneous 0.8 mg/kg, after 7 d): 100% | % of protection ([5]; subcutaneous 0.8 mg/kg, after 14 d): 95% | % of protection ([5]; subcutaneous 0.8 mg/kg, after 21 d): 84% | % of protection ([5]; subcutaneous 0.8 mg/kg, after 28 d): 79% | % of protection ([5]; subcutaneous 0.8 mg/kg, after 35 d): 42% | % of protection ([5]; subcutaneous 0.8 mg/kg, after 42 d): 21% | Protection against histamine ([3]; after 1 hour): + (at least 50% protected) | Protection against histamine ([3]; after 24 hours): 0 (less than 50% protected) | LD50 at 72 h (acute toxicity; ip, intraperitoneal): ~300 mg/kg | LD50 at 72 h (acute toxicity; oral): > 1600 mg/kg

COc1ccc2[nH]cc(C3CCN(CCCN4c5ccccc5Sc5ccc(C(F)(F)F)cc54)CC3)c2c1 [Example 3, 4-(5'-methoxy-3'-indolyl)-1-[γ-(2"-trifluoromethyl-10"-phenothiazinyl)-propyl]-piperidine hydrochloride]
ED50 [1, 10]: < 10 mg/kg | ED50 [1, 11]: 12 mg/kg | ED50 [1, 12]: 20 mg/kg | ED50 [1, 6]: > 50 mg/kg | ED50 [1, 7]: < 10 mg/kg | ED50 [2, 13]: < 10 mg/kg | ED50 [2, 14]: < 10 mg/kg | ED50 [2, 15]: < 10 mg/kg | ED50 [2, 8]: < 10 mg/kg | ED50 [2, 9]: < 10 mg/kg

COc1ccc2c(C3CCN(CCCN4c5ccccc5Sc5ccc(C(F)(F)F)cc54)CC3)c(C)[nH]c2c1 [Example 4, 4-(2'-methyl-6'-methoxy-3'-indolyl)-1-[γ-(2"-trifluoromethyl-10"-phenothiazinyl)-propyl]-piperidine hydrochloride]
ED50 [1, 10]: 9 mg/kg | ED50 [1, 11]: 16 mg/kg | ED50 [1, 12]: 25 mg/kg | ED50 [1, 6]: > 50 mg/kg | ED50 [1, 7]: 9 mg/kg | ED50 [2, 13]: < 10 mg/kg | ED50 [2, 14]: 9 mg/kg | ED50 [2, 15]: 9 mg/kg | ED50 [2, 16]: 50 mg/kg | ED50 [2, 8]: 10 mg/kg | ED50 [2, 9]: < 10 mg/kg

Clc1ccc2c(c1)N(CCCN1CCC(c3c[nH]c4ccccc34)CC1)c1ccccc1S2 [Example 5, 4-(3'-indolyl)-1'-[γ-(2"-chloro-10"-phenothiazinyl)-propyl]-piperidine hydrochloride]
ED50 [1, 10]: 12 mg/kg | ED50 [1, 11]: 27 mg/kg | ED50 [1, 6]: > 50 mg/kg | ED50 [1, 7]: < 10 mg/kg | ED50 [2, 13]: < 10 mg/kg | ED50 [2, 14]: 10 mg/kg | ED50 [2, 15]: 17 mg/kg | ED50 [2, 8]: 16 mg/kg | ED50 [2, 9]: < 10 mg/kg | Protection against histamine ([3]; after 1 hour): + (at least 50% protected) | Protection against histamine ([3]; after 24 hours): + (at least 50% protected)

COc1ccc2c(c1)N(CCCN1CCC(c3c[nH]c4ccccc34)CC1)c1ccccc1S2 [Example 6, 4-(3'-indolyl)-1-[γ-(2"-methoxy-10"-phenothiazinyl)-propyl]-piperidine hydrochloride]
ED50 [1, 10]: 45 mg/kg | ED50 [1, 6]: > 50 mg/kg | ED50 [1, 7]: < 10 mg/kg | ED50 [2, 13]: 10 mg/kg | ED50 [2, 8]: < 10 mg/kg | ED50 [2, 9]: < 10 mg/kg | Protection against histamine ([3]; after 1 hour): 0 (less than 50% protected) | Protection against histamine ([3]; after 24 hours): + (at least 50% protected)

CC(CN1CCC(c2c[nH]c3ccccc23)CC1)CN1c2ccccc2Sc2ccc(C(F)(F)F)cc21 (stereo not drawn) [Example 7, 4-(3'-indolyl)-1-[β-methyl-γ-(2"-trifluoromethyl-10"-phenothiazinyl)-propyl]-piperidine hydrochloride]
ED50 [1, 10]: 10 mg/kg | ED50 [1, 11]: < 10 mg/kg | ED50 [1, 12]: 12 mg/kg | ED50 [1, 6]: > 20 mg/kg | ED50 [1, 7]: 10 mg/kg | ED50 [2, 13]: < 10 mg/kg | ED50 [2, 14]: 13 mg/kg | ED50 [2, 15]: < 10 mg/kg | ED50 [2, 16]: 19 mg/kg | ED50 [2, 8]: > 20 mg/kg | ED50 [2, 9]: < 10 mg/kg | Protection against histamine ([3]; after 1 hour): 0 (less than 50% protected) | Protection against histamine ([3]; after 24 hours): + (at least 50% protected)

COc1ccc2c(c1)N(CC(C)CN1CCC(c3c[nH]c4ccccc34)CC1)c1ccccc1S2 (stereo not drawn) [Example 8, 4-(3'-indolyl)-1-[γ-(2"-methoxy-10"-phenothiazinyl)-β-methylpropyl]-piperidine hydrochloride]
ED50 [1, 10]: 12 mg/kg | ED50 [1, 11]: 30 mg/kg | ED50 [1, 6]: > 50 mg/kg | ED50 [1, 7]: < 10 mg/kg | ED50 [2, 13]: < 10 mg/kg | ED50 [2, 14]: 18 mg/kg | ED50 [2, 8]: < 10 mg/kg | ED50 [2, 9]: < 10 mg/kg | Protection against histamine ([3]; after 1 hour): 0 (less than 50% protected) | Protection against histamine ([3]; after 24 hours): + (at least 50% protected)

— US3988453A, “Novel phenothiazines as neuroleptics” (Roussel-UCLAF, priority 1974, dated 1976)
